Results taken from ChEMBL document CHEMBL5465560, “Selectivity Literature for EUbOPEN Chemogenomic Library” (2024).

Legend:
[1] = molecular target: Serine/threonine-protein kinase N3 (Homo sapiens) (UniProt Q6P5Z2); test: Selectivity interaction (ProQinase) EUB0000171b PKN3
[2] = molecular target: T1, Serine/threonine-protein kinase D2 (Homo sapiens) (UniProt Q9BZL6); conditions: at 10 µM
T1 sequence (whole entry): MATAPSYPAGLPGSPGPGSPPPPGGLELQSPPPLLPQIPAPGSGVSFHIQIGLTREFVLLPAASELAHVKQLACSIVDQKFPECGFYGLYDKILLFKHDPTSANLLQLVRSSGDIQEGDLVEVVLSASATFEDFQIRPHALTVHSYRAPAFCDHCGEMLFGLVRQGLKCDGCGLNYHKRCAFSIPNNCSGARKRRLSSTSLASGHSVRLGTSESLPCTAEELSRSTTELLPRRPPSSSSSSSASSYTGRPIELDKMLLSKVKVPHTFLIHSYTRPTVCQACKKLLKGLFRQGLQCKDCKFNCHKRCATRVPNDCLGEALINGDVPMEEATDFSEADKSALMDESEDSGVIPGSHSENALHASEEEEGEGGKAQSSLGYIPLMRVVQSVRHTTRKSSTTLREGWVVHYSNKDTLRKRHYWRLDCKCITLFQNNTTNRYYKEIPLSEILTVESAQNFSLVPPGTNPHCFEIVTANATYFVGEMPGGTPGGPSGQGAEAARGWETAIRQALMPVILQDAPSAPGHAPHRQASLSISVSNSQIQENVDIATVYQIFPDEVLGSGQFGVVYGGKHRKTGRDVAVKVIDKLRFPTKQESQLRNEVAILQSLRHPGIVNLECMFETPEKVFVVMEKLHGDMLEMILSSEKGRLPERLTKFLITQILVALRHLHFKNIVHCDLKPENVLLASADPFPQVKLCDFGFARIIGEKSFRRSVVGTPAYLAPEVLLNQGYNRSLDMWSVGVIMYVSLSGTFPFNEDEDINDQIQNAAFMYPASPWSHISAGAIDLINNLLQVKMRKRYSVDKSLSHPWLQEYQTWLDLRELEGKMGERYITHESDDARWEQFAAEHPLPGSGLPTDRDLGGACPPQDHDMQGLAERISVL

[3] = molecular target: Serine/threonine-protein kinase 16 (Homo sapiens, UniProt O75716); test: Selectivity interaction (Kinase panel (Invitrogen)) EUB0000639a STK16; conditions: at 200 nM
Serine/threonine-protein kinase 16, sequence (O75716 whole entry): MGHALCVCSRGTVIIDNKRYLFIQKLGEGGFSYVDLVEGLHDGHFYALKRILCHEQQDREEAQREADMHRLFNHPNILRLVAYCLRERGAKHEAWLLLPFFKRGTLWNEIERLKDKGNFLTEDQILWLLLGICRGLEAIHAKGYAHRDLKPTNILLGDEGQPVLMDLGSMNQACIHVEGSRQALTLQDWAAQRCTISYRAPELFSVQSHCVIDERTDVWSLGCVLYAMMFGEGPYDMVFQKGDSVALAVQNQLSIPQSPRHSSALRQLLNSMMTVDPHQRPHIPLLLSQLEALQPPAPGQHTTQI

[4] = molecular target: T2, Serine/threonine-protein kinase DCLK1 (Homo sapiens) (UniProt O15075); test: Selectivity interaction (KinomeScan (DiscoverX)) EUB0001049a DCLK1; conditions: at 1 µM
T2 sequence (whole entry): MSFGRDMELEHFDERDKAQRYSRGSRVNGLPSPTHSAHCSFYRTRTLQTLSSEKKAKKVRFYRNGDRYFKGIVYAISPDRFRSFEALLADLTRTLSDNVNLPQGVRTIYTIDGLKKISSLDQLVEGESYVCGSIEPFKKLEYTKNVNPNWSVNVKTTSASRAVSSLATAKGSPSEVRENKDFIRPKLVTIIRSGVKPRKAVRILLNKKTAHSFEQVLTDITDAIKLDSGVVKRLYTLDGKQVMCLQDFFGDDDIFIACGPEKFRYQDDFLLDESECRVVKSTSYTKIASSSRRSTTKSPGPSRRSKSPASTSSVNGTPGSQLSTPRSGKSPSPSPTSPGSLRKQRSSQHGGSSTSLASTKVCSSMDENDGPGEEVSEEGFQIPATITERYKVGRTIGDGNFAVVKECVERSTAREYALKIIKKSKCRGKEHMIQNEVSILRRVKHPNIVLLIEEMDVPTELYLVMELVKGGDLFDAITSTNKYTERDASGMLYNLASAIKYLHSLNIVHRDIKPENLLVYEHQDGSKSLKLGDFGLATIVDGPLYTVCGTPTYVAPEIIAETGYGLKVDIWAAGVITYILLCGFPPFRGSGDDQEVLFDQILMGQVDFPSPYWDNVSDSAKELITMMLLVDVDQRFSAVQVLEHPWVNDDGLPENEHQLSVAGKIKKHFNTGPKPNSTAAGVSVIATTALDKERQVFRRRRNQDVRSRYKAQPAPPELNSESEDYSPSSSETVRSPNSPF

[5] = molecular target: T3, Cyclin-dependent kinase 11A (Homo sapiens) (UniProt Q9UQ88); test: Selectivity interaction (KinomeScan (DiscoverX)) EUB0000045b CDK11A; conditions: at 1 µM
T3 sequence (whole entry): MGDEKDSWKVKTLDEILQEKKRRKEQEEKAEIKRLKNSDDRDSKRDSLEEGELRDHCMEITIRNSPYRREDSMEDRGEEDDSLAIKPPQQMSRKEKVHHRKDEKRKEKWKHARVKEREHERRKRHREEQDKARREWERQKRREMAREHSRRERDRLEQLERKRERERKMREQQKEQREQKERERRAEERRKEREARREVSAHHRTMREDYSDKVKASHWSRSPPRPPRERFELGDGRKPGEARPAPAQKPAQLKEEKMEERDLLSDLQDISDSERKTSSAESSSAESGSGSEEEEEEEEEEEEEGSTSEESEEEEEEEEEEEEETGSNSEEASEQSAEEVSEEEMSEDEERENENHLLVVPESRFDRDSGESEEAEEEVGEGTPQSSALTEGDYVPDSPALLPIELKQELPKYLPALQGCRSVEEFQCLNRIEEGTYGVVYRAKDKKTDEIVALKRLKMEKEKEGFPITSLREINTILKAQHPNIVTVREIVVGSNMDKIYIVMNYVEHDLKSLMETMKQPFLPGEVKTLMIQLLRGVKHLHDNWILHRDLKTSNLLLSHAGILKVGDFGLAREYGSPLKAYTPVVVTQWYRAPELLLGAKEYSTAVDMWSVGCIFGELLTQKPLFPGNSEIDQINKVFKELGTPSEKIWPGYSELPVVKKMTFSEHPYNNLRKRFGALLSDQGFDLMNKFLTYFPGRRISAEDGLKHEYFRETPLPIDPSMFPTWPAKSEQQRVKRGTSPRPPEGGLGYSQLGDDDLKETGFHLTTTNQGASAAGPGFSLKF

Serine/threonine-protein kinase N3 (Homo sapiens), sequence (Q6P5Z2 whole entry, looked up): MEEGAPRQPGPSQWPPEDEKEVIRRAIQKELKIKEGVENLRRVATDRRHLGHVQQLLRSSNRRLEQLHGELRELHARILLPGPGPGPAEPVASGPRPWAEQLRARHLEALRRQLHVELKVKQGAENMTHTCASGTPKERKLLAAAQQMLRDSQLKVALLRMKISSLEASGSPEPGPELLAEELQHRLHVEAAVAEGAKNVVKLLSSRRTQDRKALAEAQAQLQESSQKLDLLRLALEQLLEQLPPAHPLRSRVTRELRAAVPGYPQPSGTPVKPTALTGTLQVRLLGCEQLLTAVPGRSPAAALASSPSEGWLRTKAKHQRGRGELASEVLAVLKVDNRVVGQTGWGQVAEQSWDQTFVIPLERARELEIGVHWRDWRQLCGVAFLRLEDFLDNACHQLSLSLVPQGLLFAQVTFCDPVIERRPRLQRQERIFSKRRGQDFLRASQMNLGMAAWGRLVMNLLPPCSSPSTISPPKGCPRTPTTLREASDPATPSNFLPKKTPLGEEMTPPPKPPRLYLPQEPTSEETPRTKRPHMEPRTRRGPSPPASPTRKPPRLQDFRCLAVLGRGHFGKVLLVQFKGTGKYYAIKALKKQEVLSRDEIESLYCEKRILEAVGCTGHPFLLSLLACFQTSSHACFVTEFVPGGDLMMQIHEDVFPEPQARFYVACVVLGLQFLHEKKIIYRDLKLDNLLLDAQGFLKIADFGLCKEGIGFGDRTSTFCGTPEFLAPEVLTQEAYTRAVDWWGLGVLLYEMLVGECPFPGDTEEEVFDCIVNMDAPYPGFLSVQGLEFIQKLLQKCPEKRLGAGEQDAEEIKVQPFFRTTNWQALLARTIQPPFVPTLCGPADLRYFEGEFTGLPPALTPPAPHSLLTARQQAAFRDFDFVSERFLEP

Q: For C=CC(=O)Nc1cccc(C(=O)Nc2ccc(Nc3cc(-c4[nH]c(SC)nc4C)ccn3)cc2)c1, which % of control ([1]; at 1 µM) is on record?
A: The % of control was 79%.

Q: What about the % of control ([1]; at 5 µM) of the same molecule?
A: The % of control was 54%.

Q: Cc1cc([C@@H](C)Nc2ccccc2C(=O)O)c2nc(N3CCOCC3)cc(=O)n2c1 [AZD-6482] was tested. Which % of control [2] did it give?
A: The % of control was 100%.

Q: With CC[C@@H]1[C@H](F)C(=O)N[C@@H]1COc1nccc2cc(C(N)=O)c(OC)cc12 [ZIMLOVISERTIB] as the molecule, how does the % of inhibition [3] read?
A: Its % of inhibition is 14.2%.

Q: How did the % of control [4] turn out when COc1cc(Nc2nc(C)cc(-c3cnn4nc(OC)ccc34)n2)cc(C(F)(F)F)c1 was run?
A: Its % of control is 69%.

Q: Which % of control [5] does the source give for C=CC(=O)Nc1cc(-n2c(=O)ccc3cnc4ccc(-c5ccc(NS(C)(=O)=O)cc5)cc4c32)ccc1C here?
A: The % of control was 100%.
